Laboratory results: the NIST ThermoML archive (doi:10.1021/je400473z)

Experiment: wn = mass fraction of the nth substance listed
Settings: 101 kPa, Liquid, Vibrating tube method

CC#N [acetonitrile] + O
mass density [kg/m3]
Settings | 293.15 K | 303.15 K | 313.15 K
w1 = 0.1 | 983.2 | 978.7 | 973.5
w1 = 0.2 | 964.2 | 958.2 | 951.6
w1 = 0.4 | 918.7 | 910.9 | 902.8
